Data: patent US20090324742A1, “Peham dendrimers as excipients” (priority 2006, published 2009)
≈ marks a conversion by molar mass, not a printed value.

Columns and labels:
[1] = Aqueous solubility of paclitaxel with PEHAM dendritic polymer (HPLC); type: physicochemical; conditions: DI water without dendrimer, thermodynamic from solid
Method: The sample was subjected to brief ultrasonication and heating at 50° C. for 10 mins., followed by overnight shaking at RT. The sample was then centrifuged for 5 mins. and the paclitaxel content measured by HPLC.

[2] = Solubility enhancement of vitamin D3 by PEHAM dendritic polymers (HPLC); type: physicochemical; conditions: pure Active Material control without dendrimer; detection limit
Method: An excess of the cosmetic and nutrient Active Material, vitamin D3, (Sigma) was added to vials containing PEHAM dendritic polymers G=1.0 and G=2.0 with PETGE or TMPTGE cores and amine surfaces, partially PEGylated (25% PEG-550) amine surfaces, or carboxylate surfaces, dissolved in 20% (v/v) aqueous methanol at 1 wt % concentrations. These suspensions were briefly ultrasonicated in a water bath at RT, then incubated overnight at 32° C. and 100 rpm in a shaking water bath, and allowed to equilibrate at RT. The suspensions were filtered through a 0.2-μm Nylon syringe filter to remove not encapsulated Active Material. Solvent was removed and the residue redispersed in DI water. The samples were analyzed for dendrimer-associated vitamin D3 by HPLC. Association results are expressed in ng Active Material per mL solution. […] The pure Active Material as control remains below detection limit of 50 ng/mL.

CC(=O)O[C@H]1C(=O)[C@@]2(C)[C@H]([C@H](OC(=O)c3ccccc3)[C@]3(O)C[C@H](OC(=O)[C@H](O)[C@@H](NC(=O)c4ccccc4)c4ccccc4)C(C)=C1C3(C)C)[C@]1(OC(C)=O)CO[C@@H]1C[C@@H]2O [paclitaxel] gave a solubility [1] of 0.3 µg/mL (≈ 0.351 µM).
For C=C1CC[C@H](O)C/C1=C/C=C1\CCC[C@]2(C)[C@@H]([C@H](C)CCCC(C)C)CC[C@@H]12 [vitamin D3], the “vitamin D3 solubility” value [2] was < 0.05 µg/mL.
